Experimental data: ChEMBL document CHEMBL4002566, “S-substituted 3,5-dinitrophenyl 1,3,4-oxadiazole-2-thiols and tetrazole-5-thiols as highly efficient antitubercular agents” (Eur J Med Chem, 2017)
≈ marks a conversion by molar mass, not a printed value.

Assays:
[1] = system: Trichophyton mentagrophytes; assay: Antifungal activity against Trichophyton mentagrophytes 445 after 72 hrs by broth microdilution method; assay type: functional; settings: Trichophyton mentagrophytes, 445, 72 h
Trichosporon asahii = assay: Antifungal activity against Trichosporon asahii 1188 after 24 hrs by broth microdilution method; assay type: functional; settings: Trichosporon asahii, 1188, 24 h
Lichtheimia corymbifera = assay: Antifungal activity against Absidia corymbifera 272 after 24 hrs by broth microdilution method; assay type: functional; settings: Lichtheimia corymbifera, 272, 24 h
Candida tropicalis = assay: Antifungal activity against Candida tropicalis 156 after 24 hrs by broth microdilution method; assay type: functional; settings: Candida tropicalis, 156, 24 h
Aspergillus fumigatus = assay: Antifungal activity against Aspergillus fumigatus 231 after 24 hrs by broth microdilution method; assay type: functional; settings: Aspergillus fumigatus, 231, 24 h
Pichia kudriavzevii = assay: Antifungal activity against Candida krusei E28 after 24 hrs by broth microdilution method; assay type: functional; settings: E28, 24 h
Candida albicans = assay: Antifungal activity against Candida albicans ATCC 44859 after 24 hrs by broth microdilution method; assay type: functional; settings: ATCC 44859, 24 h
[2] = system: Mycobacterium tuberculosis; assay: Antimycobacterial activity against Mycobacterium tuberculosis CNCTC My 331/88 after 14 days by micromethod; assay type: functional; settings: CNCTC My 331/88, 336 h
Mycobacterium kansasii [3] = assay: Antimycobacterial activity against Mycobacterium kansasii 6509/96 clinical isolate after 14 days by micromethod; assay type: functional; settings: 6509/96, 336 h
Mycobacterium kansasii [4] = assay: Antimycobacterial activity against Mycobacterium kansasii CNCTC My 235/80 after 7 days by micromethod; assay type: functional; settings: CNCTC My 235/80, 168 h
Mycobacterium kansasii [5] = assay: Antimycobacterial activity against Mycobacterium kansasii CNCTC My 235/80 after 14 days by micromethod; assay type: functional; settings: CNCTC My 235/80, 336 h
[6] = Cytotoxicity against MDCK cells assessed as cell viability at 30 uM after 48 hrs by MTS assay relative to control; assay type: cell-based, Canis lupus familiaris; settings: dog, read-out: Activity
Mycobacterium kansasii [7] = assay: Antimycobacterial activity against Mycobacterium kansasii 6509/96 clinical isolate after 21 days by micromethod; assay type: functional; settings: 6509/96, 504 h
HepG2 = assay: Cytotoxicity against human HepG2 cells assessed as cell viability after 48 hrs by MTS assay; assay type: cell-based; settings: HepG2, 48 h
[8] = Cytotoxicity against human A431 cells assessed as cell viability at 30 uM after 48 hrs by MTS assay relative to control; assay type: cell-based, A-431; settings: read-out: Activity
A-431 = assay: Cytotoxicity against human A431 cells assessed as cell viability after 48 hrs by MTS assay; assay type: cell-based; settings: A-431, 48 h
[9] = Cytotoxicity against human HepG2 cells assessed as cell viability at 30 uM after 48 hrs by MTS assay relative to control; assay type: cell-based; settings: read-out: Activity
Huh-7 = assay: Cytotoxicity against human HuH7 cells assessed as cell viability after 48 hrs by MTS assay; assay type: cell-based; settings: Huh-7, 48 h
Mycobacterium kansasii [10] = assay: Antimycobacterial activity against Mycobacterium kansasii CNCTC My 235/80 after 21 days by micromethod; assay type: functional; settings: CNCTC My 235/80, 504 h
MDCK = assay: Cytotoxicity against MDCK cells assessed as cell viability after 48 hrs by MTS assay; assay type: cell-based; settings: Canis lupus familiaris
Mycobacterium avium [11] = assay: Antimycobacterial activity against Mycobacterium avium CNCTC My 330/88 after 21 days by micromethod; assay type: functional; settings: CNCTC My 330/88, 504 h
[12] = Selectivity index, ratio of IC50 for human HepG2 cells to MIC for Mycobacterium tuberculosis; assay type: toxicity; settings: read-out: Selectivity Index
Mycobacterium avium [13] = assay: Antimycobacterial activity against Mycobacterium avium CNCTC My 330/88 after 14 days by micromethod; assay type: functional; settings: CNCTC My 330/88, 336 h
[14] = system: Mycobacterium tuberculosis; assay: Antimycobacterial activity against Mycobacterium tuberculosis CNCTC My 331/88 after 21 days by micromethod; assay type: functional; settings: CNCTC My 331/88, 504 h
Mycobacterium kansasii [15] = assay: Antimycobacterial activity against Mycobacterium kansasii 6509/96 clinical isolate after 7 days by micromethod; assay type: functional; settings: 6509/96, 168 h
[16] = Cytotoxicity against human HuH7 cells assessed as cell viability at 30 uM after 48 hrs by MTS assay relative to control; assay type: cell-based, Huh-7; settings: read-out: Activity
[17] = system: Staphylococcus epidermidis; assay: Antibacterial activity against Staphylococcus epidermidis HK6996/08 after 24 hrs by broth microdilution method; assay type: functional; settings: HK6996/08, 24 h
Enterococcus sp. = assay: Antibacterial activity against Enterococcus sp. HK14365/08 after 24 hrs by broth microdilution method; assay type: functional; settings: HK14365/08, 24 h
Staphylococcus aureus [18] = assay: Antibacterial activity against Staphylococcus aureus ATCC 6538 after 24 hrs by broth microdilution method; assay type: functional; settings: ATCC 6538, 24 h
Staphylococcus aureus [19] = assay: Antibacterial activity against methicillin-resistant Staphylococcus aureus HK5996/08 after 24 hrs by broth microdilution method; assay type: functional; settings: HK5996/08, 24 h
Pseudomonas aeruginosa = assay: Antibacterial activity against Pseudomonas aeruginosa ATCC 9027 after 24 hrs by broth microdilution method; assay type: functional
Klebsiella pneumoniae [20] = assay: Antibacterial activity against Klebsiella pneumoniae HK11750/08 after 24 hrs by broth microdilution method; assay type: functional
Klebsiella pneumoniae [21] = assay: Antibacterial activity against extended spectrum beta-lactamase producing Klebsiella pneumoniae HK14368/08 after 24 hrs by broth microdilution method; assay type: functional
Escherichia coli = assay: Antibacterial activity against Escherichia coli ATCC 8739 after 24 hrs by broth microdilution method; assay type: functional
Nakaseomyces glabratus = assay: Antifungal activity against Candida glabrata 20/I after 24 hrs by broth microdilution method; assay type: functional

| Compound | MIC [2] | MIC (Mycobacterium kansasii [3]) | MIC (Mycobacterium kansasii [4]) | MIC (Mycobacterium kansasii [5]) | MIC (Mycobacterium kansasii [7]) | MIC (Mycobacterium kansasii [10]) | MIC (Mycobacterium avium [11]) | MIC (Mycobacterium avium [13]) | MIC [14] | MIC (Mycobacterium kansasii [15]) | further results |
| --- | --- | --- | --- | --- | --- | --- | --- | --- | --- | --- | --- |
| OC(Cn1cncn1)(Cn1cncn1)c1ccc(F)cc1F [FLUCONAZOLE] |  |  |  |  |  |  |  |  |  |  | MIC [1]: 105 µM (≈ 32.2 µg/mL); MIC (Trichosporon asahii): 210 µM (≈ 64.3 µg/mL); MIC (Lichtheimia corymbifera): > 500 µM; MIC (Candida tropicalis): 1.6 µM (≈ 0.49 µg/mL); MIC (Aspergillus fumigatus): > 500 µM; MIC (Pichia kudriavzevii): 105 µM (≈ 32.2 µg/mL); MIC (Candida albicans): 0.82 µM (≈ 0.251 µg/mL) |
| O=[N+]([O-])c1cc(-c2nnc(SCc3cccc(Cl)c3)o2)cc([N+](=O)[O-])c1 | 0.03 µM (≈ 0.0118 µg/mL) | 0.06 µM (≈ 0.0236 µg/mL) | 0.06 µM (≈ 0.0236 µg/mL) | 0.06 µM (≈ 0.0236 µg/mL) | 0.06 µM (≈ 0.0236 µg/mL) | 0.06 µM (≈ 0.0236 µg/mL) | 8 µM (≈ 3.14 µg/mL) | 4 µM (≈ 1.57 µg/mL) | 0.06 µM (≈ 0.0236 µg/mL) | 0.03 µM (≈ 0.0118 µg/mL) | viability at 48 h, 30 µM [6]: 105%; IC50 (HepG2): > 30 µM; viability at 48 h, 30 µM [8]: 105%; IC50 (A-431): > 30 µM; viability at 48 h, 30 µM [9]: 129%; IC50 (Huh-7): > 30 µM; IC50 (MDCK): > 30 µM; selectivity ratio [12]: > 1000; viability at 48 h, 30 µM [16]: 158% |
| CN[C@H](CC(C)C)C(=O)N[C@H]1C(=O)N[C@@H](CC(N)=O)C(=O)N[C@H]2C(=O)N[C@H]3C(=O)N[C@H](C(=O)N[C@H](C(=O)O)c4cc(O)cc(O)c4-c4cc3ccc4O)[C@H](O)c3ccc(c(Cl)c3)Oc3cc2cc(c3O[C@@H]2O[C@H](CO)[C@@H](O)[C@H](O)[C@H]2O[C@H]2C[C@](C)(N)[C@H](O)[C@H](C)O2)Oc2ccc(cc2Cl)[C@H]1O [VANCOMYCIN] |  |  |  |  |  |  |  |  |  |  | MIC [17]: 0.35 µM (≈ 0.507 µg/mL); MIC (Enterococcus sp.): 0.7 µM (≈ 1.01 µg/mL); MIC (Staphylococcus aureus [18]): 0.35 µM (≈ 0.507 µg/mL); MIC (Staphylococcus aureus [19]): 0.35 µM (≈ 0.507 µg/mL) |
| GENTAMICIN |  |  |  |  |  |  |  |  |  |  | MIC (Pseudomonas aeruginosa): 1 µM; MIC (Klebsiella pneumoniae [20]): 0.26 µM; MIC (Klebsiella pneumoniae [21]): 0.26 µM; MIC (Escherichia coli): 0.26 µM |
| C[C@@H]1[C@H](O)[C@@H](C)/C=C/C=C/C=C/C=C/C=C/C=C/C=C/[C@H](O[C@@H]2O[C@H](C)[C@@H](O)[C@H](N)[C@@H]2O)C[C@@H]2O[C@](O)(C[C@@H](O)C[C@@H](O)[C@H](O)CC[C@@H](O)C[C@@H](O)CC(=O)O[C@H]1C)C[C@H](O)[C@H]2C(=O)O [AMPHOTERICIN B] |  |  |  |  |  |  |  |  |  |  | MIC [1]: 0.54 µM (≈ 0.499 µg/mL); MIC (Trichosporon asahii): 0.27 µM (≈ 0.25 µg/mL); MIC (Lichtheimia corymbifera): 1 µM (≈ 0.924 µg/mL); MIC (Candida tropicalis): 0.54 µM (≈ 0.499 µg/mL); MIC (Aspergillus fumigatus): 0.54 µM (≈ 0.499 µg/mL); MIC (Pichia kudriavzevii): 1 µM (≈ 0.924 µg/mL); MIC (Candida albicans): 0.54 µM (≈ 0.499 µg/mL); MIC (Nakaseomyces glabratus): 0.54 µM (≈ 0.499 µg/mL) |
| CC(=O)Nc1cc(-c2nnc(SCc3ccc(Br)cc3)o2)cc([N+](=O)[O-])c1 | > 500 µM | > 500 µM | > 500 µM | > 500 µM | > 500 µM | > 500 µM | > 500 µM | > 500 µM | > 500 µM | > 500 µM |  |
| CC(=O)Nc1cc(-c2nnc(SCc3ccc([N+](=O)[O-])cc3)o2)cc([N+](=O)[O-])c1 | > 500 µM | > 500 µM | > 500 µM | > 500 µM | > 500 µM | > 500 µM | > 500 µM | > 500 µM | > 500 µM | > 500 µM |  |
| CC(=O)Nc1cc(-c2nnc(SCc3ccc(Cl)cc3)o2)cc([N+](=O)[O-])c1 | 250 µM (≈ 101 µg/mL) | > 1000 µM | > 1000 µM | > 1000 µM | > 1000 µM | > 1000 µM | > 1000 µM | > 1000 µM | 250 µM (≈ 101 µg/mL) | > 1000 µM |  |
| CSc1nnc(-c2cc([N+](=O)[O-])cc([N+](=O)[O-])c2)o1 | 4 µM (≈ 1.13 µg/mL) | 8 µM (≈ 2.26 µg/mL) | 8 µM (≈ 2.26 µg/mL) | 16 µM (≈ 4.52 µg/mL) | 16 µM (≈ 4.52 µg/mL) | 32 µM (≈ 9.03 µg/mL) | 16 µM (≈ 4.52 µg/mL) | 16 µM (≈ 4.52 µg/mL) | 8 µM (≈ 2.26 µg/mL) | 8 µM (≈ 2.26 µg/mL) |  |
| CC(=O)Oc1cc(-c2nnc(SCc3ccc(Cl)c(Cl)c3)o2)cc([N+](=O)[O-])c1 | 1000 µM (≈ 440 µg/mL) | 1000 µM (≈ 440 µg/mL) | 1000 µM (≈ 440 µg/mL) | 1000 µM (≈ 440 µg/mL) | 1000 µM (≈ 440 µg/mL) | 1000 µM (≈ 440 µg/mL) | 1000 µM (≈ 440 µg/mL) | 1000 µM (≈ 440 µg/mL) | 1000 µM (≈ 440 µg/mL) | 1000 µM (≈ 440 µg/mL) |  |
